Columns and labels:
Assay type in all cases: in vivo
[1] = system: heat stressed lactating dairy cattle in a post-peak phase of lactation; assay: Example 1: feeding about 100 grams of sorbitol per day to heat stressed lactating dairy cattle in post-peak phase, with and without evaporative cooling
Excerpt: In the Examples below, statistical analysis was completed for parameters studied such as milk yield, energy corrected milk (ECM), fat corrected milk (FCM), and dry matter intake. A P value of 0.10 means that 10 times out of 100 the results can be explained by factors other than the feeding of sorbitol versus the lack of sorbitol feeding. Likewise, a P value of 0.75 means that 75 times out of 100, the difference in value between the control group and the sorbitol-fed group may be explained by factors other than the feeding of the increased rate(s) of supplemental feed versus the lower rate of feeding of the supplemental feed (e.g., 4 pounds per head per day). For purposes of comparing data in this document, P values of 0.15, or lower, are considered statistically significant. Thus, where a P value of 0.15 or less is returned for particular results, it is assumed that the differing results may be explained by the test regimen, i.e.: the feeding of the increased rate(s) of supplemental feed versus the lower rate of feeding of the supplemental feed (e.g., 4 pounds per head per day). […] In this example, 32 multiparous cows were blocked by production and days in milk into one of two diets, a control diet without sorbitol and a diet with sorbitol, and each treatment group was divided into two cooling treatments. The four treatment groups included 1) a control diet with fans and no mist; 2) a sorbitol-supplemented diet with fans and no mist; 3) a control diet with fans and mist; and 4) a sorbitol-supplemented diet with fans and mist. During the study, the ambient temperature was between 70 degrees and 85 degrees during 51 percent of study and was greater than 85 degrees during 13 percent of the study. Heat stress in the dairy cattle was observed through changes in performance as well as increased respiration rates. Dairy cattle performance and respiration rates for the dairy cattle not receiving mister cooling is compared to dairy cattle receiving mist treatment in Table 1. The sorbitol in the sorbitol-supplemented diets was processed as an extruded pellet and added to other grain concentrates prior to final addition and delivery to the ruminant. [table] [table]

[2] = system: heat stressed transition dairy cattle; assay: Example 2: feeding sorbitol to heat stressed transition dairy cattle (about 150 g/d prior to calving, about 125 g/d after), with and without evaporative cooling
Excerpt: In this example, the dairy cattle were blocked in the same manner as Example 1. During the study, the ambient temperature was between 70 degrees and 85 degrees during 62 percent of study and was greater than 85 degrees during 18 percent of the study.
After 30 days in milk, all postfresh cows were fed a common diet until 60 days post partum. The nutrient analysis of the total mixed rations for the control and sorbitol diets provided during the study are shown in Table 5C:
As provided in FIGS. 5A and 5B, sorbitol was provided in a base mix at a rate of 1.5 pounds per day for prefresh dairy cattle (e.g., for 28 days prior to calving) and at a rate of 1.25 pounds per day for post fresh dairy cattle (e.g., for 30 days post-calving).
From day 30 to day 60, all dairy cattle study groups received the same diet free of sorbitol (see Table 5).

[3] = system: dairy cattle in mid-lactation; assay: Example 3: feeding sorbitol at about 100 grams per day to dairy cattle in mid-lactation, with and without misters; settings: for 3.5% FCM / Body Weight / Daily Milk Yield / Dry Matter Intake / ECM / Milk Fat / Milk Protein: about 100 g/day
Excerpt: 64 dairy cattle were separated into four pens of 16 dairy cattle each pen was provided one of the four treatments described above in connection with Example 1. The treatment groups receiving sorbitol in the diet were provided 1 pound of premix per day during a ten week testing period. During the study, the temperature was between 70 degrees and 85 degrees during […] of study and was greater than 85 degrees during 25 percent of the study. […] [table] [table]

[4] = about 100 g sorbitol/day, post-peak, pooled across cooling strategies and day
[5] = sorbitol without mister treatment
[6] = day 0 to 30 postpartum, Misters
[7] = day 0 to 30 postpartum, No Misters
[8] = day 0 to 60 postpartum (sorbitol-free common diet from day 30), Misters
[9] = day 0 to 60 postpartum (sorbitol-free common diet from day 30), No Misters

OC[C@@H](O)[C@@H](O)[C@H](O)[C@@H](O)CO [Sorbitol, sorbitol]
DMI [1, 4]: 24.7 kg/day | Daily Milk [1, 4]: 39.4 kg/day | ECM [1, 4]: 37.2 kg/day | FCM [1, 4]: 36.8 kg/day | Fat [1, 4]: 1.23 kg/day | Fat, % [1, 4]: 3.16% | Milk to Feed [1, 4]: 1.60 | Protein [1, 4]: 1.12 kg/day | Protein, % [1, 4]: 2.87% | Respiration rates [1, 4]: 63.0 | performance: daily milk, ECM, FCM (FIG. 1) ([1]; sorbitol and mister treatment): best overall performance in comparison to all other groups studied | milk-to-feed ratio (FIG. 3) ([1]; sorbitol group with mister treatment): 1.64 kg of milk for every kg of dry matter consumed | milk-to-feed ratio (FIG. 3) ([1]; sorbitol group without mister treatment): 1.55 kg of milk for every kg of dry matter consumed | difference in ECM ([1]; sorbitol group without mister treatment vs control group with misters): 0.3 kg/day | FCM results vs control ([1]; sorbitol with and without mister treatment): performed better than the control group with mister treatment and significantly better than the control group without mister treatment | variation of dry matter intake between the two sorbitol groups ([1]; sorbitol with vs without misters): 0.4 kg/day | ECM results vs control [1, 5]: performed significantly better than the control group without sorbitol and mister treatment | performance: daily milk, ECM, FCM (FIG. 1) [1, 5]: performed better than the control group without misters in all performance areas | daily dry matter intake (FIG. 2) ([1]; the other groups (both sorbitol groups and control without misters) vs 28 for control with misters): 25 kg/day | Body Weight, post [2, 6]: 1259 lbs | DMI as % BW [2, 6]: 3.05% | Daily Milk Yield [2, 6]: 78.7 lbs/d | Dry Matter Intake [2, 6]: 37.8 lbs/d | ECM [2, 6]: 80.2 lbs/d | FCM [2, 6]: 80.7 lbs/d | Milk Fat [2, 6]: 3.53% | Milk Protein [2, 6]: 2.81% | Milk-to-Feed Ratio [2, 6]: 2.08 | Body Weight, post [2, 7]: 1232 lbs | DMI as % BW [2, 7]: 3.03% | Daily Milk Yield [2, 7]: 74.4 lbs/d | Dry Matter Intake [2, 7]: 36.8 lbs/d | ECM [2, 7]: 75.2 lbs/d | FCM [2, 7]: 75.5 lbs/d | Milk Fat [2, 7]: 3.42% | Milk Protein [2, 7]: 2.81% | Milk-to-Feed Ratio [2, 7]: 2.05 | increase in milk yield compared to the control group without mister treatment ([2]; day 0 to 30 postpartum, sorbitol and mister treatment): about 11.5 pounds per day | increase in milk yield compared to the control group without mister treatment ([2]; day 0 to 30 postpartum, sorbitol without mister treatment): about 7.2 pounds per day | Body Weight, post [2, 8]: 1261 lbs | DMI as % BW [2, 8]: 3.45% | Daily Milk Yield [2, 8]: 84.3 lbs/d | Dry Matter Intake [2, 8]: 42.9 lbs/d | ECM [2, 8]: 79.8 lbs/d | FCM [2, 8]: 80.4 lbs/d | Milk - to - Feed [2, 8]: 2.00 | Milk Fat [2, 8]: 3.17% | Milk Protein [2, 8]: 2.66% | Milk - to - Feed ([2]; day 0 to 60 postpartum (sorbitol-free common diet from day 30), Misters, listed as sorbitol): 2.0 | Body Weight, post [2, 9]: 1231 lbs | DMI as % BW [2, 9]: 3.32% | Daily Milk Yield [2, 9]: 81.2 lbs/d | Dry Matter Intake [2, 9]: 41.1 lbs/d | ECM [2, 9]: 77.3 lbs/d | FCM [2, 9]: 77.7 lbs/d | Milk - to - Feed [2, 9]: 1.97 | Milk Fat [2, 9]: 3.12% | Milk Protein [2, 9]: 2.66% | increase in milk yield compared to the control group without mister treatment ([2]; day 0 to 60 postpartum, sorbitol and mister treatment): about 11.3 pounds per day | increase in milk yield compared to the control group without mister treatment ([2]; day 0 to 60 postpartum, sorbitol without mister treatment): about 8.2 pounds per day | beta hydroxy butyrate (BHBA) levels (FIG. 4) ([2]; transition phase, sorbitol groups vs control without misters): control group without mister treatment experienced a spike in BHBA levels compared to the sorbitol groups | 3.5% FCM ([3]; Misters): 66.7 lbs/d | Body Weight ([3]; Misters): 1373 lbs | Daily Milk Yield ([3]; Misters): 73.7 lbs/d | Dry Matter Intake ([3]; Misters): 49.4 lbs/d | ECM ([3]; Misters): 68.1 lbs/d | Milk Fat ([3]; Misters): 2.92% | Milk Protein ([3]; Misters): 2.92% | 3.5% FCM ([3]; No Misters): 66.0 lbs/d | Body Weight ([3]; No Misters): 1393 lbs | Daily Milk Yield ([3]; No Misters): 71.9 lbs/d | Dry Matter Intake ([3]; No Misters): 51.2 lbs/d | ECM ([3]; No Misters): 67.3 lbs/d | Milk Fat ([3]; No Misters): 3.03% | Milk Protein ([3]; No Misters): 2.92% | increase in milk yield compared to the control group without mister treatment ([3]; sorbitol and mister treatment): about 3.5 pounds per day | increase in milk yield compared to the control group without mister treatment [3, 5]: about 1.7 pounds per day

From patent US11666541B2, “Systems and methods for feeding sugar alcohol to ruminants during periods of heat stress” (PURINA ANIMAL NUTRITION LLC, priority 2012, dated 2023)
